Experimental data taken from patent publication US8623877B2, “Substituted N-heteroaryl tetrahydro-isoquinoline derivatives, preparation and therapeutic use thereof” (Sanofi, priority 2010, dated 2014).
Read-outs that look alike come from different tables or passages of the source.

Legend:
[1] = biological target: T1, rhesus H3 (Macaca mulatta, UniProt Q865E1); test: Rhesus H3 [3H]-Methylhistamine radioligand binding assay (SPA, cell membranes); parameters: species or system rhesus monkey (Macacca Mulatta); settings: [3H]-Methylhistamine 2 nM, Cheng-Prusoff
T1 construct: 445 amino acid H3 receptor; expressed in transfected cells; host or cells: Flp-In T-REx 293 Cell Line (Invitrogen), pcDNA5/FRT/TO, induced with tetracycline
Experimental: (§1) Rhesus H3 membranes were prepared from the Flp-In T-REx 293 Cell Line (Invitrogen) stably transfected with pcDNA5/FRT/TO (Invitrogen) containing the rhesus monkey (Macacca Mulatta) 445 amino acid H3 receptor. (Genbank #AY231164). Stably transfected cultures were amplified in tissue culture flasks by standard tissue culture methods and induced to express rhesus H3 by exposure to 500 ng/ml tetracycline (Cellgro) for 24 hours. After induction, cells were dissociated from flasks utilizing Cell Stripper (Cellgro). Cells were centrifuged (1 K×g, 5 min) and pellet frozen in an ethanol-dry ice bath to disrupt cell membranes. Frozen cell pellet was re-suspended in 5 mM HEPES (pH 7.4, Invitrogen) at 10 ml/1000 cm2 of harvested cells. The cell suspension was drawn through an 18 gauge needle (2-3×) followed by a 23 gauge needle (2-3×) to further disrupt cell membranes. The cell suspension was centrifuged (40K×g, 30 min). Cell membrane pellet was re-suspended in 5 mM HEPES (pH 7.4, Invitrogen) at a final protein concentration of 10 mg/ml. Rhesus H3 membranes were stored under liquid nitrogen prior to use in [3H]-Methylhistamine and GTPγS radioligand binding assays.
(§2) Rhesus H3 radioligand binding assay was performed using rhesus H3 receptor membranes (prepared as described above), [3H]-Methylhistamine (Perkin Elmer) and WGA SPA beads (wheat germ agglutinin scintillation proximity assay) beads (Amersham). The assay was performed in 96-well Opti-Plates (Packard). Each reaction contained 50 μl rhesus H3 membranes (20-30 μg total protein), 50 μl WGA SPA beads (0.1 μg) and 50 μl of 83 Ci/mmol [^3H]-Methylhistamine (final concentration 2 nM) and 50 μl of tested compound. The compounds of this invention and/or vehicle were diluted with binding buffer from 10 mM DMSO stocks. Assay plates were sealed with TopSeal (Perkin Elmer) and mixed on shaker (25° C., 1 hour). Assay plates were read on TopCount scintillation counter (Packard). Results were analyzed by Hill transformation and Ki values were determined by Cheng-Prusoff equation. Similar procedure was employed to determine the binding data for rat.

[2] = biological target: Rat H3 (Rattus norvegicus, UniProt Q9QYN8); test: Rat H3 radioligand binding assay (similar procedure)
Experimental: as §2

[3] = biological target: T1, rhesus H3; test: GTPγS radioligand binding assay, inhibition of rhesus H3 constitutive functional activity in cell membranes; type: biochemical, rhesus monkey (Macacca Mulatta); settings: basal rhesus H3-mediated GTPγS binding
Experimental: as §1

[4] = rat H3, similar procedure to the rhesus binding assay, read-out: Rat H3 Binding ki

T1 sequence (Q865E1 1-445): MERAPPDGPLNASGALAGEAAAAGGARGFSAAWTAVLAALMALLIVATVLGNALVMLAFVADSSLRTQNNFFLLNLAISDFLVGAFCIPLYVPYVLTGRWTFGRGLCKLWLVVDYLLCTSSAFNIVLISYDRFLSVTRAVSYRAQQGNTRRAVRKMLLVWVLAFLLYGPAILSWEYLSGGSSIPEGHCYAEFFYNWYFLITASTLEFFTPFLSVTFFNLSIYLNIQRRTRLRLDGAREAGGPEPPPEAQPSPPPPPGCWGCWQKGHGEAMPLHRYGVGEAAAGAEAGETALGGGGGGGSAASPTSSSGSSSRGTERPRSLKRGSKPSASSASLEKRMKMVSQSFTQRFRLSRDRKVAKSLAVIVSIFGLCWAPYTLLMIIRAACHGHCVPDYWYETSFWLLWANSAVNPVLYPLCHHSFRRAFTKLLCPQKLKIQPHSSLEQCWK
Chain of Rat H3 (Q9QYN8 whole entry): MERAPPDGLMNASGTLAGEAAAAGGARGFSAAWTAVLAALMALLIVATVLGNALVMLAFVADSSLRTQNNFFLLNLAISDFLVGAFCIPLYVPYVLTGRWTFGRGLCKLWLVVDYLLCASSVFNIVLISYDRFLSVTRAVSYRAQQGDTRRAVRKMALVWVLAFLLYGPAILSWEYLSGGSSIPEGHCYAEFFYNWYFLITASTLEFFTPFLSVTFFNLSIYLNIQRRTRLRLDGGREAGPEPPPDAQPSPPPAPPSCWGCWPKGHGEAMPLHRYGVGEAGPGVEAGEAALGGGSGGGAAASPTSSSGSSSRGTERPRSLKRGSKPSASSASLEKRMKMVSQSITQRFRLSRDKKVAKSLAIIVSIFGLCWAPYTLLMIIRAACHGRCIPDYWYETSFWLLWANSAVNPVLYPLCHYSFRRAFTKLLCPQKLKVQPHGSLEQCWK

Compound | Ki [1] | Ki [2, 4] | GTPγS-35 ASSAY % Inverse Agonism [3] | Ki [2]
C[C@H]1CCCN1[C@H]1CCN(c2ccc3c(c2)CCN(c2cnc(Br)nc2)C3)C1 [Example 5, 2-(2-Bromo-pyrimidin-5-yl)-6-((2S,3′S)-2-methyl-[1,3′]bipyrrolidinyl-1′-yl)-1,2,3,4-tetrahydro-isoquinoline] | 24 nM | 92 nM | −36.4% | 
C[C@H]1CCCN1[C@H]1CCN(c2ccc3c(c2)CCN(c2ccc(C(F)(F)F)cn2)C3)C1 [Example 2, 6-((2S,3′S)-2-Methyl-[1,3′]bipyrrolidinyl-1′-yl)-2-(5-trifluoromethyl-pyridin-2-yl)-1,2,3,4-tetrahydro-isoquinoline] | 29 nM | 56 nM | −37.4% | 
Cc1ccnc(N2CCc3cc(N4CC[C@H](N5CCC[C@@H]5C)C4)ccc3C2)c1 [Example 13, 6-((2S,3′S)-2-Methyl-[1,3′]bipyrrolidinyl-1′-yl)-2-(4-methyl-pyridin-2-yl)-1,2,3,4-tetrahydro-isoquinoline] | 0.58 nM | 1.7 nM | −27.3% | 
C[C@H]1CCCN1[C@H]1CCN(c2ccc3c(c2)CCN(c2ccc(C(F)(F)F)cn2)CC3)C1 [Example 19, 7-((2S,3′S)-2-Methyl-[1,3′]bipyrrolidinyl-1′-yl)-3-(5-trifluoromethyl-pyridin-2-yl)-2,3,4,5-tetrahydro-1H-benzo[d]azepine] | 25 nM | 0.93 nM | −8.9% | 
COc1cncc(N2CCc3cc(N4CC[C@H](N5CCC[C@@H]5C)C4)ccc3C2)c1 [Example 10, 2-(5-Methoxy-pyridin-3-yl)-6-((2S,3′S)-2-methyl-[1,3′]bipyrrolidinyl-1′-yl)-1,2,3,4-tetrahydro-isoquinoline] | 0.24 nM | 0.5 nM | −16.7% | 
C[C@H]1CCCN1[C@H]1CCN(c2ccc3c(c2)CCN(c2ccc(Cl)cn2)C3)C1 [Example 16, 2-(5-Chloro-pyridin-2-yl)-6-((2S,3′S)-2-methyl-[1,3′]bipyrrolidinyl-1′-yl)-1,2,3,4-tetrahydro-isoquinoline] | 4.6 nM | 27 nM | −21.9% | 
C[C@H]1CCCN1[C@H]1CCN(c2ccc3c(c2)CCN(c2cnc4ccccc4c2)CC3)C1 [Example 18, 7-((2S,3′S)-2-Methyl-[1,3′]bipyrrolidinyl-1′-yl)-3-quinolin-3-yl-2,3,4,5-tetrahydro-1H-benzo[d]azepine] | 26 nM | 1.2 nM | −8.2% | 
C[C@H]1CCCN1[C@H]1CCN(c2ccc3c(c2)CCN(c2cccc(N4CCCC4)n2)C3)C1 [Example 15, 6-((2S,3′S)-2-Methyl-[1,3′]bipyrrolidinyl-1′-yl)-2-(6-pyrrolidin-1-yl-pyridin-2-yl)-1,2,3,4-tetrahydro-isoquinoline] | 4.8 nM | 22 nM | −13.8% | 
Cc1cc(C(F)(F)F)cc(N2CCc3cc(N4CC[C@H](N5CCC[C@@H]5C)C4)ccc3C2)n1 [Example 11, 6-((2S,3′S)-2-Methyl-[1,3′]bipyrrolidinyl-1′-yl)-2-(6-methyl-4-trifluoromethyl-pyridin-2-yl)-1,2,3,4-tetrahydro-isoquinoline] | 15 nM | 50 nM | −20.9% | 
CNC(=O)c1ccc(N2CCc3ccc(N4CC[C@H](N5CCC[C@@H]5C)C4)cc3CC2)nc1 [Example 20, N-Methyl-6-[7-((2S,3′S)-2-methyl-[1,3′]bipyrrolidinyl-1′-yl)-1,2,4,5-tetrahydro-benzo[d]azepin-3-yl]-nicotinamide] | 10 nM | 0.27 nM | −8.4% | 
C[C@H]1CCCN1[C@H]1CCN(c2ccc3c(c2)CCN(c2cccnc2Cl)C3)C1 [Example 3, 2-(2-Chloro-pyridin-3-yl)-6-((2S,3′S)-2-methyl-[1,3′]bipyrrolidinyl-1′-yl)-1,2,3,4-tetrahydro-isoquinoline] | 2.2 nM | 6.1 nM | −14.7% | 
C[C@H]1CCCN1[C@H]1CCN(c2ccc3c(c2)CCN(c2nc4ccccc4o2)C3)C1 [Example 8, 2-Benzooxazol-2-yl-6-((2S,3′S)-2-methyl-[1,3′]bipyrrolidinyl-1′-yl)-1,2,3,4-tetrahydro-isoquinoline] | 680 nM | 1200 nM | −29.4% | 
C[C@H]1CCCN1[C@H]1CCN(c2ccc3c(c2)CCN(c2cnc4ccccc4c2)C3)C1 [Example 7, 3-[6-((2S,3′S)-2-Methyl-[1,3′]bipyrrolidinyl-1′-yl)-3,4-dihydro-1H-isoquinolin-2-yl]-quinoline] | 0.28 nM | 26 nM | −32.5% | 
C[C@H]1CCCN1[C@H]1CCN(c2ccc3c(c2)CCN(c2cncnc2)C3)C1 [Example 6, 6-((2S,3′S)-2-Methyl-[1,3′]bipyrrolidinyl-1′-yl)-2-pyrimidin-5-yl-1,2,3,4-tetrahydro-isoquinoline] | 0.98 nM | 1.5 nM | −48.7% | 
C[C@H]1CCCN1[C@H]1CCN(c2ccc3c(c2)CCN(c2ccc(F)cn2)C3)C1 [Example 12, 2-(5-Fluoro-pyridin-2-yl)-6-((2S,3′S)-2-methyl-[1,3′]bipyrrolidinyl-1′-yl)-1,2,3,4-tetrahydro-isoquinoline] | 1.3 nM | 6.1 nM | −23.3% | 
Cc1ccc(S(=O)(=O)N2CCc3cc(N4CCc5cc(N6CC[C@H](N7CCC[C@@H]7C)C6)ccc5C4)ccc3C2)cc1 [Example 9, 6-((2S,3′S)-2-Methyl-[1,3′]bipyrrolidinyl-1′-yl)-2′-(toluene-4-sulfonyl)-3,4,1′,2′,3′,4′-hexahydro-1H-[2,6′]biisoquinolinyl] | 180 nM | 380 nM | −13.0% | 
C[C@H]1CCCN1[C@H]1CCN(c2ccc3c(c2)CCNCC3)C1 [Example 17, 7-((2S,3′S)-2-Methyl-1,3′-bipyrrolidinyl-1′-yl)-2,3,4,5-tetrahydro-1H-3-benzazepine] | 1.2 nM |  | −14.7% | 5.9 nM
CNC(=O)c1ccc(N2CCc3cc(N4CC[C@H](N5CCC[C@@H]5C)C4)ccc3C2)nc1 [Example 1, N-Methyl-6-[6-((2S,3′S)-2-methyl-[1,3′]bipyrrolidinyl-1′-yl)-3,4-dihydro-1H-isoquinolin-2-yl]-nicotinamide] | 0.39 nM | 0.95 nM |  | 
Cc1cccc(N2CCc3cc(N4CC[C@H](N5CCC[C@@H]5C)C4)ccc3C2)n1 [Example 4, 6-((2S,3′S)-2-Methyl-[1,3′]bipyrrolidinyl-1′-yl)-2-(6-methyl-pyridin-2-yl)-1,2,3,4-tetrahydro-isoquinoline] | 0.48 nM | 0.4 nM | −46.7% | 
C[C@H]1CCCN1[C@H]1CCN(c2ccc3c(c2)CCN(c2ncc(C(F)(F)F)cc2Cl)C3)C1 [Example 14, 2-(3-Chloro-5-trifluoromethyl-pyridin-2-yl)-6-((2S,3′S)-2-methyl-[1,3′]bipyrrolidinyl-1′-yl)-1,2,3,4-tetrahydro-isoquinoline] | 35 nM | 310 nM | −18.3% | 
